Where only a bound is given, the exact number is not on record here.

From US20070142638A1, “Ornithine derivatives as prostaglandin e2 agonists or antagonists” (Astellas Pharma Inc., priority 2003, published 2007) come the findings set out here.

The target in this experiment is T1, prostanoid receptor subtype (human EP4) (Homo sapiens, UniProt P35408).
T1 construct: expressed in transfected cells; host or cells: COS-7 cells (membrane fraction)
As to the kind of experiment: Binding assay using membrane preparation with the expression of prostanoid receptor subtype. As to conditions: test compound at 1.0×10^−8 M (10 nM); competition with [^3H]-PGE2 10 nM; membrane fraction of COS-7 cells transfected with human EP4. On the procedure:
The radioactivity associated with the filter was measured by liquid scintillation counting.
The following buffer was used in all reactions.

T1 sequence (P35408 whole entry): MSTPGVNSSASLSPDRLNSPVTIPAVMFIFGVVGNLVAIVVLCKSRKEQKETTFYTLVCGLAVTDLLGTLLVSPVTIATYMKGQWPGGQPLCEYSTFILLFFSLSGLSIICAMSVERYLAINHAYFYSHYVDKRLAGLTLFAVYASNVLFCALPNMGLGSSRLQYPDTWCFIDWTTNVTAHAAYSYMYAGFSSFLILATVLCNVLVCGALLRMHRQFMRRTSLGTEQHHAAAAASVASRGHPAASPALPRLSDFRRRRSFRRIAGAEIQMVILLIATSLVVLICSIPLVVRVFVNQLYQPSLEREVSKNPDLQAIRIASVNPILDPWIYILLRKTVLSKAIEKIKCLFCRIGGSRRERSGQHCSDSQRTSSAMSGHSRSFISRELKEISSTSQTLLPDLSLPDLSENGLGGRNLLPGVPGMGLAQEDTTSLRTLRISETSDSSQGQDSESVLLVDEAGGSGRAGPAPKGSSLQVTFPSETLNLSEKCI

By inhibition is commonly meant the relative decrease from the control value, in per cent. The low end stands for a response near the control, the high end for a response far below the control. The compound `O=C(O)CCCCCNC(=O)[C@H](CCCNC(=O)OCc1ccccc1)NC(=O)c1cc2ccccc2o1` [Example 23, Sodium 6-{(2S)-2-[(1-benzofuran-2-yl-carbonyl)-amino]-5-[benzyloxycarbonylamino]pentanoylamino}-hexanoate] yielded an inhibition at 0.01 µM of at least 80%.
